# From US4232035A, “Carbamate pesticidal compounds compositions and methods of use” (priority 1975, dated 1980)
# Assays:
# Type in all cases: in vivo
# [1] = system: root-knot nematode (Meloidogyne incognita var. acrita); assay: Nematode Test; set-up: key: 1: severe galling; equal to untreated control; 2: moderate galling; 3: light galling; 4: very light galling; 5: no galling; details: 10 ml of 500 parts per million formulation per jar of soil; cucumber indicator crop, approximately three weeks
# Description: (§1) Suspensions of the test compounds were prepared by dissolving one gram of compound in 50 milliliters of acetone in which had been dissolved 0.1 gram (10 percent of the weight of compound) of an alkylphenoxy polyethoxyethanol surfactant, as an emulsifying or dispersing agent. The resulting solution was mixed into 150 milliliters of water to give roughly 200 milliliters of a suspension containing the compound in finely divided form. The thus-prepared stock suspension contained 0.5 percent by weight of compound. The test concentrations in parts per million by weight employed in the tests described hereinbelow were obtained by appropriate dilutions of the stock suspension with water. The test procedures were as follows:
# Infective migratory larvae of the root-knot nematode, (Meloidogyne incognita var. acrita) were reared in the greenhouse on roots of Rutgers variety tomato plant. Infected tomato plants were removed from the culture and the roots were chopped very finely. A small amount of inoculum from the roots was added to pint Mason jars containing approximately 180 cc of soil. The jars containing the inoculum and soil were capped and incubated for one week at room temperature. During this period eggs of the nematode hatched and the larvae forms migrated into the soil.
# The test compounds were formulated by diluting the stock suspension with water to give a suspension containing 500 parts of test compound per million parts of final formulation. 10 milliliters of the test formulation was added to each of two jars for each dosage treated. As a control 10 milliliters of a water-acetone-emulsifier solution containing no test compound was also added to jars containing nematode larvae. The jars were capped and the contents thoroughly mixed on a kale mill for five minutes. The jars remained capped at room temperature for a period of 48 hours and the contents were then transferred to 3 inch pots. Subsequently, the pots were seeded to cucumber as an indicator crop and placed in the green house where they were cared for in the normal fashion for growing potted cucumber for approximately three weeks. These cucumber plants were then removed from the pots, the soil washed from the roots and the amount of galling visually rated.
# [2] = system: southern armyworm (Prodenia eridania, (Cram.)); assay: Southern Armyworm Leaf Spray Test; set-up: key: A: excellent control; B: partial control; C: no control; details: 500 parts per million leaf spray; three days
# Description: as §1
# Larvae of the southern armyworm (Prodenia eridania, (Cram.)), reared on Tendergreen bean plants at a temperature of 80°±5° F. and a relative humidity of 50±5 percent, constituted the test insects.
# The test compounds were formulated by diluting the stock suspension with water to give a suspension containing 500 parts of test compound per million parts of final formulation. Potted Tendergreen bean plants of standard height and age were placed on a revolving turntable and sprayed with 100-110 milliliters of test compound formulation by use of a DeVilbiss spray gun set at 10 psig air pressure. This application, which lasted 25 seconds, was sufficient to wet plants to run-off. As a control, 100-110 milliliters of a water-acetone-emulsifier solution containing no test compound were also sprayed on infested plants. When dry, the paired leaves were separated and each one was placed in a 9 centimeter Petri dish lined with moistened filter paper. Five randomly selected larvae were introduced into each dish and the dishes were closed. The closed dishes were labeled and held at 80°-85° F. for three days. Although the larvae could easily consume the whole leaf within twenty-four hours, no more food was added. Larvae which were unable to move the length of the body, even upon stimulation by prodding, were considered dead. Percent mortality was recorded for various concentration levels.
# [3] = system: two-spotted mite (Tetranychus urticae Koch); assay: Mite Foliage Spray Test; set-up: key: A: excellent control; B: partial control; C: no control; details: 500 parts per million foliage spray; six days
# Description: as §1
# Adults and nymphal stages of the two-spotted mite (Tetranychus urticae Koch), reared on Tendergreen bean plants at 80±5 percent relative humidity, were the test organisms. Infested leaves from a stock culture were placed on the primary leaves of two bean plants six to eight inches in height, growing in a two-and-a-half inch clay pot. 150-200 Mites, a sufficient number for testing, transferred from the excised leaves to the fresh plants in a period of twenty four hours. Following the twenty four hour transfer period, the excised leaves were removed from the infested plants. The test compounds were formulated by diluting the stock suspension with water to give a suspension containing 500 parts of test compound per million parts of final formulation. The potted plants (one pot per compound) were placed on a revolving turntable and sprayed with 100-110 milliliters of test compound formulation by use of a DeVilbiss spray gun set at 40 psig. air pressure. This application, which lasted 25 seconds, was sufficient to wet the plants to run-off. As a control, 100-110 milliliters of a water solution containing acetone and emulsifier in the same concentrations as the test compound formulation, but containing no test compound, were also sprayed on infested plants. The sprayed plants were held at 80±5 percent relative humidity for six days, after which a mortality count of motile forms was made. Microscopic examination for motile forms was made on the leaves of the test plants. Any individual which was capable of locomotion upon prodding was considered living.
# [4] = system: house flies (Musca domestica, L.); assay: Fly Bait Test; set-up: key: A: excellent control; B: partial control; C: no control; details: 500 parts per million bait in sugar solution; twenty four hours
# Description: as §1
# Four to six day old adult house flies (Musca domestica, L.) reared according to the specifications of the Chemical Specialties Manufacturing Association (Blue Book, McNair-Dorland Co., N.Y. 1954; pages 243-244, 261) under controlled conditions of 80°±5° F. and 50±5 percent relative humidity, were the test insects. The flies were immobilized by anesthetizing with carbon dioxide and twenty five immobilized individuals, males and females, were transferred to a cage consisting of a standard food strainer about five inches in diameter which was inverted over a wrapping-paper-covered surface. The test compounds were formulated by diluting the stock suspension with a 10 percent (by weight) sugar solution to give a suspension containing 500 parts of test compound per million parts of final formulation, by weight. Ten milliliters of the test formulation were added to a souffle cup containing a one-inch square of an absorbent cotton pad. This bait cup was introduced and centered on the blotting paper under the food strainer prior to admitting the anesthetized flies. The caged flies were allowed to feed on the bait for twenty four hours, at a temperature of 80°±5° F. and the relative humidity of 50±5 percent.
# [5] = system: Mexican bean beetle (Epilachna varivestis, Muls.); assay: Mexican Bean Beetle Leaf Spray Test; set-up: key: A: excellent control; B: partial control; C: no control; details: 500 parts per million leaf spray; fourth instar larvae; three days
# Description: as §1
# Fourth instar larvae of the Mexican bean beetle (Epilachna varivestis, Muls.), reared on Tendergreen bean plants at a temperature of 80°±5° F. and 50±5 percent relative humidity, were the test insects.
# The test compounds were formulated by diluting the stock suspension with water to give a suspension containing 500 parts of test compound per million parts of final formulation. Potted Tendergreen bean plants of standard height and age were placed on a revolving turntable and sprayed with 100-110 milliliters of test compound formulation by use of a DeVilbiss spray gun set at 10 psig air pressure. This application, which lasted 25 seconds, was sufficient to wet plants to run-off. As a control, 100-110 milliliters of a water-acetone-emulsifier solution containing no test compound were also sprayed on infested plants. When dry, the paired leaves were separated and each was placed in a 9 centimeter Petri dish lined with moistened filter paper. Five randomly selected larvae were introduced into each dish, and the dishes were closed. The closed dishes were labeled and held at a temperature of 80°±5° F. for three days. Although the larvae could easily consume the leaf within 24 to 48 hours, no more food was added. Larvae which were unable to move the length of the body, even upon stimulation, were considered dead.
# [6] = system: bean aphid (Aphis fabae Scop.); assay: Bean Aphid Foliage Spray Test; set-up: key: A: excellent control; B: partial control; C: no control; details: 500 parts per million foliage spray; 24 hour holding period
# Description: as §1
# Adults and nymphal stages of the bean aphid (Aphis fabae Scop.) reared on potted dwarf nasturtium plants at 65°-70° F. and 50-70 percent relative humidity, constituted the test insects. For testing purposes, the number of aphids per pot was standardized to 100-150 by trimming plants containing excess aphids.
# The test compounds were formulated by diluting the stock suspension with water to give a suspension containing 500 parts of test compound per million parts of final formulation.
# The potted plants (one pot per compound tested) infested with 100-150 aphids, were placed on a revolving turntable and sprayed with 100-110 milliliters of test compound formulation by use of a DeVilbiss spray gun set at 40 psig. air pressure. This application, which lasted 25 seconds, was sufficient to wet the plants to run-off. As a control, 100-110 milliliters of a water-acetone-emulsifier solution containing no test compound were also sprayed on infested plants. After spraying, the pots were placed on their sides on a sheet of white standard mimeograph paper which had been previously ruled to facilitate counting. Temperature and humidity in the test room during the 24 hour holding period were 65°-70° F. and 50-70 percent, respectively. Aphids which fell onto the paper and were unable to remain standing after being uprighted were considered dead. Aphids remaining on the plants were observed closely for movement and those which were unable to move the length of the body upon stimulation by prodding were considered dead. Percent mortality was recorded for various concentration levels.
smiles,measurement,setting,value
CN(SSc1ccc(Cl)cc1)C(=O)ON=C1SC(C)(C)C(=O)N1C,"Nematodes, nematocidal toxicity rating (galling)",[1],1
same,"S. Armyworm, pesticidal activity rating",[2],A
same,"Mite, pesticidal activity rating",[3],C
same,"H. Fly, pesticidal activity rating",[4],B
same,"M. Bean Beetle, pesticidal activity rating",[5],A
same,"Aphid, pesticidal activity rating",[6],A
CN(SSc1ccc(C(C)(C)C)cc1)C(=O)ON=C1SC(C)(C)C(=O)N1C,"Nematodes, nematocidal toxicity rating (galling)",[1],1
same,"S. Armyworm, pesticidal activity rating",[2],A
same,"Mite, pesticidal activity rating",[3],C
same,"H. Fly, pesticidal activity rating",[4],C
same,"M. Bean Beetle, pesticidal activity rating",[5],A
same,"Aphid, pesticidal activity rating",[6],C
CC(C)SSN(C)C(=O)ON=C1SCOC1C (stereo not drawn),"Nematodes, nematocidal toxicity rating (galling)",[1],1
same,"S. Armyworm, pesticidal activity rating",[2],A
same,"Mite, pesticidal activity rating",[3],A
same,"H. Fly, pesticidal activity rating",[4],A
same,"M. Bean Beetle, pesticidal activity rating",[5],A
same,"Aphid, pesticidal activity rating",[6],A
CN(SSc1ccc(C(C)(C)C)cc1)C(=O)ON=C1CSCCS1,"Nematodes, nematocidal toxicity rating (galling)",[1],4
same,"S. Armyworm, pesticidal activity rating",[2],A
same,"Mite, pesticidal activity rating",[3],A
same,"H. Fly, pesticidal activity rating",[4],A
same,"M. Bean Beetle, pesticidal activity rating",[5],A
same,"Aphid, pesticidal activity rating",[6],A
CCCCCCCCSSN(C)C(=O)ON=C1SCOC1C (stereo not drawn),"Nematodes, nematocidal toxicity rating (galling)",[1],1
same,"S. Armyworm, pesticidal activity rating",[2],A
same,"Mite, pesticidal activity rating",[3],A
same,"H. Fly, pesticidal activity rating",[4],A
same,"M. Bean Beetle, pesticidal activity rating",[5],A
same,"Aphid, pesticidal activity rating",[6],A
CC1OCSC1=NOC(=O)N(C)SSc1ccc(Cl)cc1 (stereo not drawn),"Nematodes, nematocidal toxicity rating (galling)",[1],1
same,"S. Armyworm, pesticidal activity rating",[2],A
same,"Mite, pesticidal activity rating",[3],A
same,"H. Fly, pesticidal activity rating",[4],A
same,"M. Bean Beetle, pesticidal activity rating",[5],A
same,"Aphid, pesticidal activity rating",[6],A
CN(SSC(C)(C)C)C(=O)ON=C1CSCCS1,"Nematodes, nematocidal toxicity rating (galling)",[1],1
same,"S. Armyworm, pesticidal activity rating",[2],A
same,"Mite, pesticidal activity rating",[3],A
same,"H. Fly, pesticidal activity rating",[4],A
same,"M. Bean Beetle, pesticidal activity rating",[5],A
same,"Aphid, pesticidal activity rating",[6],A
CN(SSC1CCCCC1)C(=O)ON=C1SC(C)(C)C(=O)N1C,"Nematodes, nematocidal toxicity rating (galling)",[1],2
same,"S. Armyworm, pesticidal activity rating",[2],A
same,"Mite, pesticidal activity rating",[3],C
same,"H. Fly, pesticidal activity rating",[4],C
same,"M. Bean Beetle, pesticidal activity rating",[5],A
same,"Aphid, pesticidal activity rating",[6],A
CC(C)SSN(C)C(=O)ON=C1SC(C)(C)C(=O)N1C,"Nematodes, nematocidal toxicity rating (galling)",[1],1
same,"S. Armyworm, pesticidal activity rating",[2],A
same,"Mite, pesticidal activity rating",[3],C
same,"H. Fly, pesticidal activity rating",[4],A
same,"M. Bean Beetle, pesticidal activity rating",[5],A
same,"Aphid, pesticidal activity rating",[6],A
CC1OCSC1=NOC(=O)N(C)SSc1ccccc1 (stereo not drawn),"Nematodes, nematocidal toxicity rating (galling)",[1],2
same,"S. Armyworm, pesticidal activity rating",[2],A
same,"Mite, pesticidal activity rating",[3],A
same,"H. Fly, pesticidal activity rating",[4],A
same,"M. Bean Beetle, pesticidal activity rating",[5],A
same,"Aphid, pesticidal activity rating",[6],A
CSSN(C)C(=O)ON=C1SCOC1C (stereo not drawn),"Nematodes, nematocidal toxicity rating (galling)",[1],1
same,"S. Armyworm, pesticidal activity rating",[2],A
same,"Mite, pesticidal activity rating",[3],A
same,"H. Fly, pesticidal activity rating",[4],A
same,"M. Bean Beetle, pesticidal activity rating",[5],A
same,"Aphid, pesticidal activity rating",[6],A
